Assay results: ChEMBL document CHEMBL4819146, “Optimization of physicochemical properties of pyridone-based EP3 receptor antagonists” (Bioorg Med Chem Lett, 2021)

Legend:
[1] = Cmax in Sprague-Dawley rat at 20 mg/kg, po; assay type: ADME, organism-based; design: route oral, dose 20 mg/kg; details: in vivo
[2] = AUC in Sprague-Dawley rat at 20 mg/kg, po; assay type: ADME, organism-based; design: dose 20 mg/kg; details: in vivo
[3] = Volume of distribution at steady state in Sprague-Dawley rat at 2 mg/kg, iv; assay type: ADME, organism-based; details: in vivo, read-out: Vdss
[4] = Oral bioavailability in Sprague-Dawley rat at 20 mg/kg; assay type: ADME, organism-based; details: in vivo
[5] = Apparent permeability from apical to basolateral side in dog MDCK cells; assay type: ADME, cell-based, Canis lupus familiaris

| Cmax [1] [ng/mL] | AUC [2] [ng·h/mL] | Vd [3] [L/kg] | F [4] [%] | Papp A→B [5] [×10⁻⁶ cm/s] | SMILES |
| --- | --- | --- | --- | --- | --- |
| 5120 | 59653 | 0.5 | 81.6 |  | CCn1ncc2c(F)cc(-c3ccc(C(CC)(CC)c4nnc[nH]4)c(=O)[nH]3)cc21 |
| 409 | 4242 | 1.98 |  |  | CC(C)C(c1nnc[nH]1)c1ccc(-c2ccc3cccc(F)c3c2)[nH]c1=O (configuration not stated) |
| 6960 | 15775 | 0.21 | 47.8 | 25.3 | CC(C)C(c1noc(=O)[nH]1)c1ccc(-c2ccc3cccc(F)c3c2)[nH]c1=O (configuration not stated) |
